Results from ChEMBL document CHEMBL4406848, “Novel water soluble BODIPY compounds: Synthesis, photochemical, DNA interaction, topoisomerases inhibition and photodynamic activity properties” (Eur J Med Chem, 2019).
The source made the active and inactive calls. The calls are words filed in the database; no cut-off is given here.

How the values were obtained:
[1] = tested on: HCT-116; assay: Cytotoxicity against human HCT116 cells assessed as cell viability incubated for 24 hrs in dark by MTT assay; assay type: functional, cell-based; conditions: for IC50: HCT-116, 24 h
[2] = tested on: HCT-116; assay: Phototoxicity against human HCT116 cells assessed as cell viability at 100 uM incubated for 24 hrs under 17.5 mW/cm2 light irradiation by MTT assay relative to control; assay type: functional; conditions: HCT-116, light or radiation study, read-out: Activity
[3] = tested on: HCT-116; assay: Cytotoxicity against human HCT116 cells assessed as cell viability at 0.5 uM incubated for 24 hrs in dark by MTT assay relative to control; assay type: functional; conditions: HCT-116, 24 h, read-out: Activity
[4] = tested on: HCT-116; assay: Phototoxicity against human HCT116 cells assessed as reduction in cell viability incubated for 24 hrs under 17.5 mW/cm2 light irradiation by MTT assay; assay type: functional, cell-based; conditions: HCT-116, light or radiation study
[5] = tested on: HCT-116; assay: Induction of apoptosis in human HCT116 cells assessed as necrotic cells at 10 uM incubated for 24 hrs in presence of irradiation by annexin V FITC and propidium iodide based flow cytometry (reference value: 0.2 %); assay type: functional
[6] = biological target: T1, DNA topoisomerase 1 (Homo sapiens) (UniProt P11387); assay: Inhibition of recombinant human topoisomerase 1 at 25 uM incubated for 1 hr by ethidium bromide staining based agarose gel electrophoresis method relative to control
T1 sequence (whole entry): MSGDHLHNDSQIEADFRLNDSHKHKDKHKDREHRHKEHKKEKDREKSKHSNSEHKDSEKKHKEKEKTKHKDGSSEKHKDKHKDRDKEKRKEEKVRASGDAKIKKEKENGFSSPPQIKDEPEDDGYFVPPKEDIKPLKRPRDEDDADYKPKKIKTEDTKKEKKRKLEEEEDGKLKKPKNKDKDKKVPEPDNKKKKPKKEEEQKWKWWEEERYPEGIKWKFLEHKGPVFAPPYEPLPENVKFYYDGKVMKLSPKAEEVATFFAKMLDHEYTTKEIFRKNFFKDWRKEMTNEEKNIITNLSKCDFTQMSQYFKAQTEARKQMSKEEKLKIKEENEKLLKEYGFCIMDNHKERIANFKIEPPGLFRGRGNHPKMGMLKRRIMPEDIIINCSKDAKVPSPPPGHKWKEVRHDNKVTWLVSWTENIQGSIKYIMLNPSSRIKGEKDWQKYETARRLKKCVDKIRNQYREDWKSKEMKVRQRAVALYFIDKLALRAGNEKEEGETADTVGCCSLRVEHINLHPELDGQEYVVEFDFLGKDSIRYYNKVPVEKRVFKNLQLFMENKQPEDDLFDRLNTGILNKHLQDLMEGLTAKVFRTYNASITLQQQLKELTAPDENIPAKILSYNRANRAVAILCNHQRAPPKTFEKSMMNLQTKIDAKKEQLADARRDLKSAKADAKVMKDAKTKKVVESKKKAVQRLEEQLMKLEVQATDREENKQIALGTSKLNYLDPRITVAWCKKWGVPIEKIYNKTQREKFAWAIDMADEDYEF

[7] = biological target: T2, DNA topoisomerase II (Homo sapiens) (UniProt P11388+Q02880); assay: Inhibition of recombinant human topoisomerase 2 at 50 uM incubated for 1 hr by ethidium bromide staining based agarose gel electrophoresis method relative to control; assay type: protein assay
[8] = Induction of singlet oxygen generation in TBS solution assessed as singlet oxygen quantum yield by measuring reduction in ADMA irradiated with 650 nanometer laser light; assay type: functional
[9] = biological target: T2, DNA topoisomerase II (Homo sapiens); assay: Inhibition of recombinant human topoisomerase 2 at 12.5 uM incubated for 1 hr by ethidium bromide staining based agarose gel electrophoresis method relative to control; assay type: protein assay
[10] = tested on: HCT-116; assay: Phototoxicity against human HCT116 cells assessed as cell viability at 0.5 uM incubated for 24 hrs under 17.5 mW/cm2 light irradiation by MTT assay relative to control; assay type: functional; conditions: HCT-116, light or radiation study, read-out: Activity
[11] = tested on: Calf thymus DNA; assay: Competitive binding affinity to calf thymus DNA assessed as change in viscosity incubated for 10 mins by viscometer; assay type: nucleic-acid assay; conditions: Bos taurus
[12] = tested on: HCT-116; assay: Induction of apoptosis in human HCT116 cells assessed as viable cells at 10 uM incubated for 24 hrs in presence of irradiation by annexin V FITC and propidium iodide based flow cytometry (reference value: 94.8 %); assay type: functional; conditions: HCT-116, light or radiation study, read-out: Activity
[13] = biological target: T2, DNA topoisomerase II (Homo sapiens); assay: Inhibition of recombinant human topoisomerase 2 at 25 uM incubated for 1 hr by ethidium bromide staining based agarose gel electrophoresis method relative to control; assay type: protein assay
[14] = tested on: HCT-116; assay: Cytotoxicity against human HCT116 cells assessed as cell viability at 5 uM incubated for 24 hrs in dark by MTT assay relative to control; assay type: functional; conditions: HCT-116, 24 h, read-out: Activity
[15] = tested on: HCT-116; assay: Cytotoxicity against human HCT116 cells assessed as cell viability at 1 uM incubated for 24 hrs in dark by MTT assay relative to control; assay type: functional; conditions: HCT-116, 24 h, read-out: Activity
[16] = Photostability of compound in TBS assessed as percentage of photodegradation measured every 10 mins for 1 hr at 17.5 mW/cm'2 irradiation by UV-visible spectrophotometry
[17] = tested on: HCT-116; assay: Induction of apoptosis in human HCT116 cells assessed as early apoptotic cells at 10 uM incubated for 24 hrs in presence of irradiation by annexin V FITC and propidium iodide based flow cytometry (reference value: 3.4 %); assay type: functional
[18] = tested on: DNA; assay: Induction of Escherichia coli plasmid pBR322 DNA cleavage at 3.125 to 25 uM incubated for 1 hr in dark by agarose gel electrophoresis; assay type: nucleic-acid assay
[19] = tested on: HCT-116; assay: Cytotoxicity against human HCT116 cells assessed as cell viability at 10 uM incubated for 24 hrs in dark by MTT assay relative to control; assay type: functional; conditions: HCT-116, 24 h, read-out: Activity
[20] = tested on: HCT-116; assay: Cytotoxicity against human HCT116 cells assessed as cell viability at 50 uM incubated for 24 hrs in dark by MTT assay relative to control; assay type: functional; conditions: HCT-116, 24 h, read-out: Activity
[21] = tested on: HCT-116; assay: Induction of apoptosis in human HCT116 cells assessed as late apoptotic cells at 10 uM incubated for 24 hrs in presence of irradiation by annexin V FITC and propidium iodide based flow cytometry (reference value: 1.6 %); assay type: functional
[22] = tested on: Calf thymus DNA; assay: Binding affinity to calf thymus DNA assessed as percentage of hypochromicity incubated for 10 mins by UV-visible spectrophotometry; assay type: nucleic-acid assay; conditions: Bos taurus
[23] = biological target: T1, DNA topoisomerase 1 (Homo sapiens); assay: Inhibition of recombinant human topoisomerase 1 at 50 uM incubated for 1 hr by ethidium bromide staining based agarose gel electrophoresis method relative to control
[24] = tested on: HCT-116; assay: Cytotoxicity against human HCT116 cells assessed as cell viability at 100 uM incubated for 24 hrs in dark by MTT assay relative to control; assay type: functional; conditions: HCT-116, 24 h, read-out: Activity
[25] = tested on: HCT-116; assay: Phototoxicity against human HCT116 cells assessed as cell viability at 5 uM incubated for 24 hrs under 17.5 mW/cm2 light irradiation by MTT assay relative to control; assay type: functional; conditions: HCT-116, light or radiation study, read-out: Activity
[26] = tested on: DNA; assay: Induction of Escherichia coli plasmid pBR322 DNA cleavage assessed as decrease in supercoiled DNA at 3.125 uM in presence of light irradiation and incubated for 1 hr by agarose gel electrophoresis relative to control; assay type: nucleic-acid assay; set-up: scale not given: the % may be the effect or the level left
[27] = biological target: T2, DNA topoisomerase II (Homo sapiens); assay: Inhibition of recombinant human topoisomerase 2 assessed as supercoiled DNA at 50 uM incubated for 1 hr by ethidium bromide staining based agarose gel electrophoresis method relative to control; assay type: protein assay; set-up: scale not given: the % may be the effect or the level left
[28] = tested on: HCT-116; assay: Cytotoxicity against human HCT116 cells assessed as cell viability at 0.5 and 1 uM incubated for 24 hrs in dark by MTT assay; assay type: functional, cell-based

inhibition [6]	inhibition [7]	inhibition [9]	Activity [11]	inhibition [13]	Activity [18]	SMILES	IC50 [1]	viability at 100 µM [2]	viability at 0.5 µM [3]	IC50 [4]	Activity [5]	Activity [8]	viability at 0.5 µM [10]	viability at 10 µM [12]	viability at 5 µM [14]	viability at 1 µM [15]	Drug degradation [16]	Activity [17]	viability at 10 µM [19]	viability at 50 µM [20]	further results
89.4%	61.5%	56.4%	Active	58.7%	inactive	CC1=CC(/C=C/c2ccc(OCCCc3ccc[n+](C)c3)c(OCCCc3ccc[n+](C)c3)c2)=[N+]2C1=C(c1ccc(OCCCc3ccc[n+](C)c3)c(OCCCc3ccc[n+](C)c3)c1)c1c(C)cc(/C=C/c3ccc(OCCCc4ccc[n+](C)c4)c(OCCCc4ccc[n+](C)c4)c3)n1[B-]2(F)F.[I-].[I-].[I-].[I-].[I-].[I-]	> 100 µM	66%	100%	> 100 µM	0.1%	0.3	100%	95.5%	96%	100%	18.7%	3.3%	96%	100%	Activity [21]: 1%; Activity [22]: 46.7%; inhibition [23]: 89.9%; viability at 100 µM [24]: 90%; viability at 5 µM [25]: 100%; Activity [26]: 58.5%; Activity [27]: 87.7%; Activity [28]: inactive
88.6%	56.2%	54.6%	Active	54.6%	inactive	CC1=CC(/C=C/c2ccc(OCCCc3ccc[n+](C)c3)cc2)=[N+]2C1=C(c1ccc(OCCCc3ccc[n+](C)c3)cc1)c1c(C)cc(/C=C/c3ccc(OCCCc4ccc[n+](C)c4)cc3)n1[B-]2(F)F.[I-].[I-].[I-]	> 100 µM	0%	100%	3.95 µM	3.4%	0.21	100%	9.6%	91%	100%	17.7%	54.4%	88%	67%	Activity [1]: Dose-dependent effect; Activity [21]: 32.5%; Activity [22]: 47.8%; inhibition [23]: 89%; viability at 100 µM [24]: 57%; viability at 5 µM [25]: 25%; Activity [26]: 76.8%; Activity [27]: 77.2%; Activity [28]: inactive
